Measurements from the supplement of paper PMC11061612.

Key:
[1] = system: RERF-GC-1B (Gastric Carcinoma); assay: Bliss excess, mean over the matrix (fraction); higher = more synergy
Summary of the method: (§1)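 Cell lines grown in DMEM/F12 or RPMI with 10% FBS were plated in 1536-well plates and held 24 hours at 37°C, 5% CO2 before 72 hours of exposure to two-drug dose matrices, with DMSO typically at 0.2%. CellTiter-Glo 2.0 luminescence gave viability, which was converted to inhibition. Vehicle wells were set to 0 and blank wells to 1. Combination Emax is the second-highest inhibition in the matrix, and Bliss excess is the observed combination effect minus the expected EA + EB − EA·EB, where EA and EB are the single-agent effects.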

SF268 (Low Grade Glioma) [2] = assay: as above
Summary of the method: as §1

[3] = system: LXF-289 (Lung Adenocarcinoma); assay: as above
Summary of the method: as §1

[4] = system: LB996-RCC (Kidney Carcinoma); assay: as above
Summary of the method: as §1

[5] = system: NCI-H23 (Lung Adenocarcinoma); assay: as above
Summary of the method: as §1

[6] = system: KE-37 (T-Lymphoblastic Leukemia); assay: as above
Summary of the method: as §1

[7] = system: OAW-42 (Ovarian Carcinoma); assay: as above
Summary of the method: as §1

WM793B (Melanoma) [8] = assay: as above
Summary of the method: as §1

[9] = system: SU-DHL-10 (B-Cell Non-Hodgkin's Lymphoma); assay: as above
Summary of the method: as §1

[10] = system: HEC-1 (Endometrial Carcinoma); assay: as above
Summary of the method: as §1

A2058 (Melanoma) [11] = assay: as above
Summary of the method: as §1

[12] = system: FADU (Head and Neck Carcinoma); assay: as above
Summary of the method: as §1

[13] = system: 23132-87 (Gastric Carcinoma); assay: as above
Summary of the method: as §1

[14] = system: NCI-H446 (Small Cell Lung Carcinoma); assay: as above
Summary of the method: as §1

[15] = system: RERF-LC-Sq1 (Squamous Cell Lung Carcinoma); assay: as above
Summary of the method: as §1

GB-1 (Glioblastoma) [16] = assay: as above
Summary of the method: as §1

LN-229 (Glioblastoma) [17] = assay: as above
Summary of the method: as §1

[18] = system: CAL-120 (Breast Carcinoma); assay: as above
Summary of the method: as §1

[19] = system: GP5d (Colorectal Carcinoma); assay: as above
Summary of the method: as §1

[20] = system: HCT-15 (Colorectal Carcinoma); assay: as above
Summary of the method: as §1

WM278 (Melanoma) [21] = assay: as above
Summary of the method: as §1

[22] = system: RERF-GC-1B (Gastric Carcinoma); assay: combination Emax (second highest fraction inhibited in the dose matrix, 72 h); higher = more inhibition; extreme values may be limits of the assay
Summary of the method: as §1

SF268 (Low Grade Glioma) [23] = assay: as above
Summary of the method: as §1

[24] = system: LXF-289 (Lung Adenocarcinoma); assay: as above
Summary of the method: as §1

[25] = system: LB996-RCC (Kidney Carcinoma); assay: as above
Summary of the method: as §1

[26] = system: NCI-H23 (Lung Adenocarcinoma); assay: as above
Summary of the method: as §1

[27] = system: KE-37 (T-Lymphoblastic Leukemia); assay: as above
Summary of the method: as §1

[28] = system: OAW-42 (Ovarian Carcinoma); assay: as above
Summary of the method: as §1

WM793B (Melanoma) [29] = assay: as above
Summary of the method: as §1

[30] = system: SU-DHL-10 (B-Cell Non-Hodgkin's Lymphoma); assay: as above
Summary of the method: as §1

[31] = system: HEC-1 (Endometrial Carcinoma); assay: as above
Summary of the method: as §1

A2058 (Melanoma) [32] = assay: as above
Summary of the method: as §1

[33] = system: FADU (Head and Neck Carcinoma); assay: as above
Summary of the method: as §1

[34] = system: 23132-87 (Gastric Carcinoma); assay: as above
Summary of the method: as §1

[35] = system: NCI-H446 (Small Cell Lung Carcinoma); assay: as above
Summary of the method: as §1

[36] = system: RERF-LC-Sq1 (Squamous Cell Lung Carcinoma); assay: as above
Summary of the method: as §1

GB-1 (Glioblastoma) [37] = assay: as above
Summary of the method: as §1

LN-229 (Glioblastoma) [38] = assay: as above
Summary of the method: as §1

[39] = system: CAL-120 (Breast Carcinoma); assay: as above
Summary of the method: as §1

[40] = system: GP5d (Colorectal Carcinoma); assay: as above
Summary of the method: as §1

[41] = system: HCT-15 (Colorectal Carcinoma); assay: as above
Summary of the method: as §1

WM278 (Melanoma) [42] = assay: as above
Summary of the method: as §1
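Throughout, for Bliss excess, mean over the matrix: after 72 h of two-drug dosing.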

Question: What does the source list for `C[C@@H](c1ccc2nccn2c1)n1nnc2ncc(-c3cnn(C)c3)nc21` [Savolitinib] + CN(CC[C@H](CSC1=CC=CC=C1)NC2=C(C=C(C=C2)S(=O)(=O)NC(=O)C3=CC=C(C=C3)N4CCC(CC4)[C@H](C5=CC=CC=C5C6=CC=C(C=C6)Cl)O)S(=O)(=O)C(F)(F)F)CCO [AZD4320] (first compound max 1 µM, 7x7, partner max 1 µM)?
Answer: Bliss excess [1]: -0.0404; Bliss excess (SF268 (Low Grade Glioma) [2]): -0.0491; Bliss excess [3]: -0.0203; Bliss excess [4]: -0.0392; Bliss excess [5]: 0.0248; Bliss excess [6]: -0.0327; Bliss excess [7]: -0.0451; Bliss excess (WM793B (Melanoma) [8]): -0.0644; Bliss excess [9]: -0.0067; Bliss excess [10]: -0.027; Bliss excess (A2058 (Melanoma) [11]): 0.0035; Bliss excess [12]: -0.0378; Bliss excess [13]: -0.0618; Bliss excess [14]: 0.112; Bliss excess [15]: -0.0075; Bliss excess (GB-1 (Glioblastoma) [16]): -0.0653; Bliss excess (LN-229 (Glioblastoma) [17]): -0.0833; Bliss excess [18]: -0.0325; Bliss excess [19]: -0.0339; Bliss excess [20]: -0.0274; Bliss excess (WM278 (Melanoma) [21]): -0.0406; combination Emax [22]: 0.367; combination Emax (SF268 (Low Grade Glioma) [23]): 0.172; combination Emax [24]: 0.188; combination Emax [25]: 0.19; combination Emax [26]: 0.316; combination Emax [27]: 1; combination Emax [28]: 0.275; combination Emax (WM793B (Melanoma) [29]): 0.137; combination Emax [30]: 0.0854; combination Emax [31]: 0.423; combination Emax (A2058 (Melanoma) [32]): 0.192; combination Emax [33]: 0.221; combination Emax [34]: 0.338; combination Emax [35]: 0.694; combination Emax [36]: 0.238; combination Emax (GB-1 (Glioblastoma) [37]): 0.15; combination Emax (LN-229 (Glioblastoma) [38]): 0.187; combination Emax [39]: 0.65; combination Emax [40]: 0.29; combination Emax [41]: 0.132; combination Emax (WM278 (Melanoma) [42]): 0.55
